“Also recorded” adds a separate entry of the source. Where two headings read alike, the source gives them in different places. Blank lines part the entries; values can stand above or below the compound they belong to.
How the values were obtained:
[1] = Chelator-induced iron clearance (ICE) in iron-overloaded Cebus apella primates; assay type: in vivo, Cebus apella monkeys; details: 75 μmol/kg, monosodium salt
Experimental: Iron Loading of Cebus apella Monkeys. The monkeys (3.5-6.5 kg) were iron overloaded with intravenous iron dextran as specified in earlier publications to provide about 500 mg of iron per kg of body weight; the serum transferrin iron saturation rose to between 70 and 80%.^38,40 At least 20 half-lives, 60 days, elapsed before any of the animals were used in experiments evaluating iron-chelating agents.
Primate Fecal and Urine Samples. Fecal and urine samples were collected at 24 hours intervals and processed as described previously^38,40,74 Briefly, the collections began 4 days prior to the administration of the test drug and continued for an additional 5 days after the drug was given. Iron concentrations were determined by flame absorption spectroscopy as presented in other publications.^38′^40
Drug Preparation and Administration.
Calculation of Chelator Iron Clearing Efficiency (ICE).

[2] = log Papp, octanol/TRIS buffer pH 7.4, shake flask direct method; assay type: physicochemical; details: not told
From the text: The redesign of 2 was predicated on the observation that both ligands 2 and 3 were orally active iron chelators in rodents and primates (Table 1), and that when the 4′-(OH) of 2 was methylated, providing (S)-4,5-dihydro-2-(2-hydroxy-4-methoxyphenyl)-4-methyl-4-thiazolecarboxylic acid^43 [(S)-4′-(CH3O)-DADFT, 4], there was a remarkable enhancement in both ICE and lipophilicity (log Papp). The log Papp data are expressed as the log of the fraction of the chelator seen in the octanol layer; measurements were done in TRIS buffer, pH 7.4, using a “shake flask” direct method.^49 The more negative the log Papp, the less chelator is in the octanol phase, the less lipophilic. Unfortunately, the increase in ICE of 4 came with a concomitant increase in toxicity.^50 Thus, the delicate balance between the increase in ICE and toxicity with enhanced lipophilicity needed to be understood and exploited.

[3] = Tissue distribution/metabolism of chelators in rats given sc (HPLC); assay type: in vivo, Sprague-Dawley rats
Experimental: Collection of Chelator Tissue Distribution Samples from Rodents. Male Sprague-Dawley rats (250-350 g) were given a single subcutaneously injection of the monosodium salts of 8 and 11 prepared as described above at a dose of […]. At times 0.5, 1, 2, 4 and 8 hours after dosing (n=3 rats per time point), the animals were euthanized by exposure to CO2 gas. Blood was obtained via cardiac puncture into vacutainers containing sodium citrate. The blood was centrifuged, and the plasma was separated for analysis. The liver, kidney, heart, and pancreas were removed from the animals and frozen.
Tissue Analytical Methods. Tissue samples of animals treated with 8 were prepared for HPLC analysis by homogenizing them in H2O at a ratio of 1:1 (w/v). Then, as a rinse, CH3OH at a ratio of 1:3 (w/v) was added, and the mixture was stored at −20° C. for 30 min. This homogenate was centrifuged. The supernatant was diluted with H2O, vortexed, and filtered with a 0.2 μm membrane. Analytical separation was performed on a Supelco Discovery RP Amide C16 HPLC system with UV detection at 310 nm as described previously.^44,75 Mobile phase and chromatographic conditions were as follows: solvent A, 5% CH3CN/95% buffer (25 mM KH2PO4+2.5 mM 1-octanesulfonic acid, pH 3.0); solvent B, 60% CH3CN/40% buffer.
Tissue samples of animals treated with 11 were prepared for HPLC analysis by homogenizing them in 0.5 N HClO4 at a ratio of 1:3 (w/v). Then, as a rinse, CH3OH at a ratio of 1:3 (w/v) was added, and the mixture was stored at −20° C. for 30 min. This homogenate was centrifuged. The supernatant was diluted with 95% buffer (25 mM KH2PO4, pH 3.0)/5% CH3CN, vortexed, and filtered with a 0.2 μm membrane. Analytical separation was performed on a Supelco Ascentis Express RP-Amide HPLC system with UV detection at 310 nm as described previously. Mobile phase and chromatographic conditions were as for 8.
Ligand concentrations were calculated from the peak area fitted to calibration curves by nonweighted least-squares linear regression with Shimadzu Class-VP 7.4 software.

[4] = for Rat ICE (%): 300 μmol/kg, monosodium salt
[5] = Tissue distribution/metabolism of chelators in rats given sc (HPLC); assay type: in vivo, Sprague-Dawley rats; details: for metabolism of 7 to 8 and 9 in tissues: sc 7, HPLC of tissues
[6] = cited from earlier work
[7] = cited from earlier work; remark: listed apart in the source
[8] = rats, sc, 300 mol/kg (so in the source); liver; 2 hours post drug; cited from earlier work
[9] = even when administered b.i.d.; cited from earlier work
[10] = rats; cited from earlier work
[11] = 10-day toxicity trial of (S)-4′-(HO)-DADFT-HXA (11) in rats
[12] = cited from earlier work; remark: listed apart in the source
[13] = 2:1 complex with Fe(III), cited from earlier work
[14] = rats; cited from earlier work; remark: listed apart in the source
[15] = rats, cited from earlier work
[16] = po, 300 μmol/kg, 48 hour sample collection period, historical
[17] = treated rats, one day post drug, 384 μmol/kg/day po x 10 days

Log Papp [2]: −1.22
SMILES: COCCOCCOCCOc1cccc(C2=N[C@@](C)(C(=O)O)CS2)c1O [Compound 6, (S)-4,5-dihydro-2-[2-hydroxy-3-(3,6,9-trioxadecyloxy)phenyl]-4-methyl-4-thiazolecarboxylic acid]
ICE ([6]; po, 150 μmol/kg, compound 6 dose response): 18.7±2.9%
iron decorporated ([6]; po, 150 μmol/kg): 0.782 ± 0.121 mg/kg
Rodent ICE (%) [6, 16]: 10.6±4.4%
quantity of iron excreted ([6]; po, 300 μmol/kg): 0.887 ± 0.367 mg/kg
Primate ICE (%) ([7]; po, 150 μmol/kg, historical): 23.0 ± 4.1%
proportion of administered compound cleaved to its hydroxy metabolite (2 or 3) [8]: 2.6%
renal toxicity [9]: no renal toxicity

Log Papp [2]: −0.70
SMILES: COc1ccc(C2=N[C@@](C)(C(=O)O)CS2)c(O)c1 [Compound 4, (S)-4,5-dihydro-2-(2-hydroxy-4-methoxyphenyl)-4-methyl-4-thiazolecarboxylic acid]
Rodent ICE (%) ([6]; po, 300 μmol/kg, historical): 6.6 ± 2.8%
Primate ICE (%) ([7]; po, 150 μmol/kg, historical): 24.4 ± 10.8%
proportion of administered compound cleaved to its hydroxy metabolite (2 or 3) [8]: about 30%

Log Papp [2]: −0.89
share of total drug concentration ([3]; sc 7, plasma, 0.5 hour): 95%
SMILES: COCCOCCOc1ccc(C2=N[C@@](C)(C(=O)O)CS2)c(O)c1 [Compound 7, (S)-4,5-dihydro-2-[2-hydroxy-4-(3,6-dioxaheptyloxy)phenyl]-4-methyl-4-thiazolecarboxylic acid]
Rodent ICE (%) [6, 16]: 26.7 ± 4.7%
Primate ICE (%) ([7]; po, 75 μmol/kg, as monosodium salt, historical): 28.7±12.4%
Primate ICE (%) ([7]; po, 75 μmol/kg, in capsules, historical): 26.3 ± 9.9%
histopathology ([15]; extensive tissues): no drug-related abnormalities were identified
CBC and serum chemistries ([15]; po s.i.d. 28 d (56.9-170.7 μmol/kg/day), s.i.d. 10 d (384 μmol/kg/d), b.i.d. 7 d (474 μmol/kg/d)): No drug-related abnormalities were found
BUN and SCr levels ([15]; same regimens): within the normal range
urinary Kim-1 excretion ([15]; up to 28 days): did not elicit any increases in urinary Kim-1 excretion
cleavage of 7 to 2 ([5]; sc 7): no cleavage to 2; also recorded: does not sustain metabolic cleavage at the 4′-(HO) to yield 2
metabolism of 7 to 8 and 9 in tissues [5]: cleavage of the terminal methyl of 7 to the corresponding alcohol 8 did occur

Log Papp [2]: −1.10
SMILES: COCCOCCOCCOc1ccc(C2=N[C@@](C)(C(=O)O)CS2)c(O)c1 [Compound 5, (S)-4,5-dihydro-2-[2-hydroxy-4-(3,6,9-trioxadecyloxy)phenyl]-4-methyl-4-thiazolecarboxylic acid]
Rodent ICE (%) ([6]; po, 300 μmol/kg, historical): 5.5 ± 1.9%
Primate ICE (%) ([7]; po, 150 μmol/kg, historical): 25.4 ± 7.4%
proportion of administered compound cleaved to its hydroxy metabolite (2 or 3) [8]: 2%
renal toxicity [9]: no renal toxicity

More lines, now with the values behind:

SMILES: C[C@]1(C(=O)O)CSC(c2ccc(OCCOCC(=O)O)cc2O)=N1 [Compound 9, (S)-4,5-dihydro-2-[2-hydroxy-4-(4-carboxy-3-oxabutyloxy)phenyl]-4-methyl-4-thiazolecarboxylic acid]
Cebus ICE (%) ([1]; po): 1.7±1.4%
Cebus ICE (%) ([1]; sc): 17.4±9.7%
Log Papp [2]: −1.63
share of drug (parent+metabolite) ([3]; sc 8, 300 μmol/kg, liver, 1 hour): 59%
detection in liver ([3]; sc 8, 300 μmol/kg, liver, 8 hours): no metabolite 9 remains
share of drug (parent+metabolite) ([3]; sc 8, 300 μmol/kg, plasma, 2 hour post dosing): 88%
detection in plasma ([3]; sc 8, 300 μmol/kg, plasma, 8 hour): Neither the parent 8 nor the metabolite 9 was found at the 8 hour time point
Rat ICE (%) ([4]; po): 6.2 ± 1.7%
Rat ICE (%) ([4]; sc): 11.3 ± 3.4%
metabolism of 7 to 8 and 9 in tissues [5]: not detected

SMILES: CC(=O)N(O)CCCCCNC(=O)CCC(=O)N(O)CCCCCNC(=O)CCC(=O)N(O)CCCCCN [DFO, desferrioxamine B]
Rodent ICE (%) ([6]; sc, 150 μmol/kg): 2.5 ± 0.7%
Primate ICE (%) ([7]; sc, 150 μmol/kg): 5.5 ± 0.9%
effect on colitis [10]: prevent acetic acid-induced colitis

SMILES: C[C@]1(C(=O)O)CSC(c2ccc(OCCCCCCO)cc2O)=N1 [Compound 11, (S)-4,5-dihydro-2-[2-hydroxy-4-(6-hydroxyhexyloxy)phenyl]-4-methyl-4-thiazolecarboxylic acid]
Cebus ICE (%) ([1]; po): 21.9±3.6%
urinary Kim-1 excretion ([11]; baseline and not exceeded during the 10-day exposure, 384 μmol/kg/day po): < 20 ng/kg/24 hours
histopathology ([11]; extensive tissues (25/rat), 384 μmol/kg/day po x 10 days): did not identify any drug-related abnormalities
survival / overall toxicity ([11]; rats, po once daily for 10 days, 384 μmol/kg/day): All of the rats treated with 11 survived the exposure to the drug; also recorded: lack of toxicity
BUN [11, 17]: 20 ± 4 mg/dL
SCr [11, 17]: 0.5 ± 0.1 mg/dL
Log Papp [2]: 0.21
conversion of 11 to 12-14 ([3]; sc 11, 300 μmol/kg): Significant conversion of 11→12-14 was found in all of the tissues examined; also recorded: quickly converted to the corresponding hydrophilic metabolites; also recorded: quickly converted to the corresponding hydrophilic acids 12, 13, and 14; also recorded: very quickly converted to the corresponding acid (12)
tissue concentration ([3]; sc 11, heart, 0.5 hour): 26 nmol/g wet weight
detection in kidney ([3]; sc 11, kidney): trace amounts 0.5 hour post drug
detection in liver ([3]; sc 11, liver): not found in the liver at any of the time points
tissue concentration ([3]; sc 11, pancreas, 0.5 hour): < 5 nmol/g wet weight
detection in plasma ([3]; sc 11, plasma): no longer detectable
share of total (parent+metabolites) ([3]; sc 11, plasma, 0.5 hour): 22%
Rat ICE (%) ([4]; po): 9.9 ± 0.8%
oral absorption ([4]; rats, po): well absorbed
overt toxicity ([4]; rats, po 300 μmol/kg, single dose): did not present with any overt toxicity; also recorded: did not display any overt toxicity; also recorded: did not elicit any signs of overt toxicity

SMILES: C[C@]1(C(=O)O)CSC(c2ccc(O)cc2O)=N1 [Compound 2, (S)-2-(2,4-dihydroxyphenyl)-4,5-dihydro-4-methyl-4-thiazolecarboxylic acid]
Rodent ICE (%) ([6]; po, 300 μmol/kg, historical): 1.1±0.8%
Primate ICE (%) ([7]; po, 150 μmol/kg, historical): 16.8±7.2%
tolerability in patients ([12]; 5, 10, or 15 mg/kg/day once daily for up to 12 weeks): well tolerated
renal toxicity in patients ([12]; twice daily 12.5 mg/kg (25 mg/kg/d), three patients after 4-5 weeks): unacceptable renal toxicity
Log Papp [2]: −1.05

SMILES: C[C@]1(C(=O)O)CSC(c2ncccc2O)=N1 [Compound 1, (S)-4,5-dihydro-2-(3-hydroxy-2-pyridinyl)-4-methyl-4-thiazolecarboxylic acid]
Rodent ICE (%) ([6]; po, 150 μmol/kg): 5.5±3.2%
Primate ICE (%) ([7]; po, 150 μmol/kg, historical): 16.1±8.5%
cumulative formation constant [13]: 4e+29 M⁻¹
cumulative formation constant ([13]; unit not given): 4×10^29
Log Papp [2]: −1.77
nephrotoxicity [14]: severe nephrotoxicity; also recorded: unacceptable renal toxicity
